Test results published in patent publication US12441730B2, “PRMT5 inhibitors” (Merck Sharp & Dohme LLC, priority 2019, dated 2025).
Where two headings read alike, the source gives them in different places.

Columns and labels:
[1] = system: symmetric dimethylation of arginine (SDMA) of PRMT5 substrates in MCF-7 cells; experiment: PRMT5 Cell Target Engagement (TE) Assay; assay type: cell-based; settings: 3 days treatment, SDMA high content imaging
Text: PRMT5 Cell Target Engagement (TE) Assay
The PRMT5 TE assay is a biomarker assay for identifying compounds that inhibit symmetric dimethylation of arginine (SDMA) of PRMT5 substrates. The following substrates have been reported for PRMT5: histone H2A and H4 R3, Histone H3 R2, Histone H3 R8, spliceosome Sm proteins, ribosomal protein RPS10, p53, FEN1, nucleoplasmin, nucleolin, EGFR and EBNA. The assay focuses on detecting symmetrically dimethylated nuclear proteins using high content imaging technology. Detection of the expression of symmetrically dimethylated nuclear proteins is through a mixture of primary rabbit monoclonal antibodies to SDMA (CST 13222), which in turn recognized by an Alexafluor 488 dye-conjugated anti-rabbit IgG secondary antibody. The IN Cell Analyzer 2200 or Opera-Phenix measures nuclear Alexafluor 488 fluorescent dye intensity that is directly related to the level of expression of symmetrically dimethylated nuclear proteins at the single cell level. Nuclear AF488 dye intensities are compared to the mean value for DMSO treated cells (MIN) to report percent of inhibition for each compound-treated well.
In this assay, the cell potency (EC50) of each compound was determined from a ten point (1:3 serial dilution; top compound concentration of 10000 nM) titration curve using the following outlined procedure. Each well of a BD falcon collagen coated black/clear bottom 384-well plate was seeded with 4000 MCF-7 cells in 30 μl media and allowed to attach for 5 h. Media is ATCC-formulated Eagle's Minimum Essential Medium, Catalog No. 30-2003. To make the complete growth medium, the following components were added to the base medium: 0.01 mg/mL human recombinant insulin; fetal bovine serum to a final concentration of 10%. Additional 30 μl of media containing 2× compounds were added to each well. Cells were treated for 3 days in 37° C. CO2 incubator. On day 3, cells were fixed with Cytofix, permeabilized with 0.4% Triton-X-100/Cytofix, and washed with D-PBS without Ca/Mg. Cells were blocked with Licor Odessey blocking reagent for 1 h at room temperature, followed by incubation with anti-SDMA (1:1000) antibody at 4° C. overnight. 1° antibody was removed, followed by three washings with DPBS without Ca/Mg and 0.05% Tween20. Hoechst (5 μg/mL), Cell Mask deep stain (1:2000) and Alexa488-conjugated goat anti-rabbit IgG (2 μg/mL) was added for 1 h at room temperature. A final washing step (three washes) was performed before sealing plate for imaging on In Cell Analyzer 2200 or Opera-Phenix. Images from analyzer were uploaded to Columbus (at WP or BOS) for image analysis. IC50 values were determined by 4 parameters robust fit of percent fluorescence units vs. (Log10) compound concentrations.

[2] = target: T1, Full-length (FL)-PRMT5-MEP50 enzyme complex (Homo sapiens, UniProt O14744); experiment: PRMT5-MEP50 Enzyme Methylation Assay (Version A); assay type: biochemical
T1 construct: Full-length (FL)-PRMT5-MEP50 enzyme complex (recombinant proteins from baculovirus-transfected Sf21 cells: FL-PRMT5; MW=73837 kDa and FL-MEP50; MW=38614); made in house; host or cells: baculovirus-transfected Sf21 cells
Method: PRMT5-MEP50 Enzyme Methylation Assay (Version A)
PRMT5-MEP50 biochemical assay is a direct measurement of the methylation activity of the enzyme complex on a short peptide substrate derived from the N-terminus of H4 histone. Methylation experiment was performed with recombinant PRMT5-MEP50 protein complex. The assessment of inhibitory effect of small molecules was measured by the effectiveness of the compounds to inhibit this reaction (EC50).
In this assay, the potency (EC50) of each compound was determined from a twenty-point (1:2 serial dilution; top compound concentration of 100000 nM) titration curve using the following outlined procedure. To each well of a white ProxiPlus 384 well-plate, 100 nL of compound (1% DMSO in final assay volume of 10 μL) was dispensed, followed by the addition of 8 μL of 1× assay buffer (50 mM Bicine pH 8.0, 1 mM DTT, 0.004% Tween20, 0.01% BSA) containing 1.25 nM of Full-length (FL)-PRMT5-MEP50 enzyme complex (recombinant proteins from baculovirus-transfected Sf21 cells: FL-PRMT5; MW=[…] and FL-MEP50; MW=38614) and 1 μL of 150 μM S-(5′-Adenosyl)-L-Methionine Chloride (SAM). A plate were sealed and placed in a 37° C. humidified chamber for a 60 minutes pre-incubation with compound. Subsequently, each reaction was initiated by the addition of 1 μL 1× assay buffer containing 750 nM biotinylated H4R3(Me1) peptide. The final reaction in each well of 10 μL consists of 1.0 nM PRMT5-MEP50, 75 nM biotinylated-peptide, and 15 μM SAM. Methylation reactions were allowed to proceed for 150 minutes in a sealed plate at 37° C. Reactions were immediately quenched by the addition of 1 μL of 5% formic acid. A plate was then frozen and shipped to SAMDI™ Tech Inc. to determine the percent conversion from H4R3(Me1) to H4R3(Me2). Dose-response curves were generated by plotting percent effect (% product conversion; Y-axis) vs. Log 10 compound concentrations (X-axis). EC50 values were determined by non-linear regression according to models for either sigmoidal (4 parameters) or biphasic (7 parameters) dose-response curves.

[3] = single EC50 = 4 parameter single site sigmoidal fit, EC50 1 = first value of 7 parameter biphasic fit, read-out: Enzyme Methylation Assay Version A (EC50 or EC50 1)
[4] = second value of 7 parameter biphasic fit, read-out: Enzyme Methylation Assay Version A (EC50 2)

T1 sequence (O14744 whole entry): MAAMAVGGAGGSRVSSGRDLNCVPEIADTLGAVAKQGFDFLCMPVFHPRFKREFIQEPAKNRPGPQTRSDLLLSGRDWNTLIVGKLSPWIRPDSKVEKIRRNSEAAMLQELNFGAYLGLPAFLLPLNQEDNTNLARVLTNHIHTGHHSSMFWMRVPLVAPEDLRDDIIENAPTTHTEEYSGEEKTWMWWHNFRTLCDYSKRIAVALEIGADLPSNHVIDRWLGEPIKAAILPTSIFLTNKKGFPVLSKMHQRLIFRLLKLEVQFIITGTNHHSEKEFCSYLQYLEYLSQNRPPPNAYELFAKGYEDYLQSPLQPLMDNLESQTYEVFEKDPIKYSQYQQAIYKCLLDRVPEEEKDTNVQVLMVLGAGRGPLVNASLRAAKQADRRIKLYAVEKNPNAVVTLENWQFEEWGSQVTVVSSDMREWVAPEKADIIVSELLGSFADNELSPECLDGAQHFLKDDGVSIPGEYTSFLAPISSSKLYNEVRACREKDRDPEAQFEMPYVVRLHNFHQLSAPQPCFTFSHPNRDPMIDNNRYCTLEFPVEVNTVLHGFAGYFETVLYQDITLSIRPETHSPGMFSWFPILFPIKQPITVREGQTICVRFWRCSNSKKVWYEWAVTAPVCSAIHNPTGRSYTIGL
T1 sequence (Q9BQA1 whole entry partner): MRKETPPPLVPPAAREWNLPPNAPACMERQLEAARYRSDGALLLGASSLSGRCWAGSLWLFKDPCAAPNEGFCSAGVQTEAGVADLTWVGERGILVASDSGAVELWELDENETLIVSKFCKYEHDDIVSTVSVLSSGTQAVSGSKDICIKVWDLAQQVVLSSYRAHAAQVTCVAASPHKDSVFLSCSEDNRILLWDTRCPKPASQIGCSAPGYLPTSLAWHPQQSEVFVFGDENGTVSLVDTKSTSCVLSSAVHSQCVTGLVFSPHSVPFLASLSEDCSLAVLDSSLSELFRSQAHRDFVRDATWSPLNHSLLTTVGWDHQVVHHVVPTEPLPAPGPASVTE

Compound | EC50 [1] | EC50 [2, 3] | EC50 [2, 4] | EC50 ([1]; Homo sapiens, MCF7, 72 h)
O=C(c1cn2c(n1)C(C1CCOC1)CC(C(F)(F)F)C2)N1CC[C@]2(Cc3ccccc3CN2)[C@H](O)C1 (single isomer, unassigned) [Example 160, ((3R,3′R)-3′-hydroxy-1,4-dihydro-2H-spiro[isoquinoline-3,4′-piperidin]-1′-yl)((6S,8S or 6R,8R)-8-((S or R)-tetrahydrofuran-3-yl)-6-(trifluoromethyl)-5,6,7,8-tetrahydroimidazo[1,2-a]pyridin-2-yl)methanone] | 289 nM | 9.52 nM | 9480 nM | –
O=C(c1cn2c(n1)C(C1CCOC1)CC(C(F)(F)F)C2)N1CC[C@]2(Cc3ccccc3CN2)[C@H](O)C1 (single isomer, unassigned) [Example 161, ((3R,3′R)-3′-hydroxy-1,4-dihydro-2H-spiro[isoquinoline-3,4′-piperidin]-1′-yl)((6S,8S or 6R,8R)-8-((S or R)-tetrahydrofuran-3-yl)-6-(trifluoromethyl)-5,6,7,8-tetrahydroimidazo[1,2-a]pyridin-2-yl)methanone] | 374 nM | 5.9 nM | 9120 nM | –
O=C(c1cn2c(n1)C(C1CCOC1)CC(C(F)(F)F)C2)N1CC[C@]2(Cc3ccccc3CN2)[C@H](O)C1 (single isomer, unassigned) [Example 162, ((3R,3′R)-3′-hydroxy-1,4-dihydro-2H-spiro[isoquinoline-3,4′-piperidin]-1′-yl)((6S,8S or 6R,8R)-8-((S or R)-tetrahydrofuran-3-yl)-6-(trifluoromethyl)-5,6,7,8-tetrahydroimidazo[1,2-a]pyridin-2-yl)methanone] | 7520 nM | 260 nM | 93300 nM | –
O=C(c1cn2c(n1)C(C1CCOC1)CC(C(F)(F)F)C2)N1CC[C@]2(Cc3ccccc3CN2)[C@H](O)C1 (single isomer, unassigned) [Example 163, ((3R,3′R)-3′-hydroxy-1,4-dihydro-2H-spiro[isoquinoline-3,4′-piperidin]-1′-yl)((6S,8S or 6R,8R)-8-((S or R)-tetrahydrofuran-3-yl)-6-(trifluoromethyl)-5,6,7,8-tetrahydroimidazo[1,2-a]pyridin-2-yl)methanone] | 1590 nM | 96.6 nM | 36700 nM | –
N#CCCC1CC(C(F)(F)F)Cn2cc(C(=O)N3CC[C@]4(Cc5ccccc5CN4)[C@H](O)C3)nc21 (single isomer, unassigned) [Example 164, 3-((6R,8S or 6S,8R)-2-((3R,3′R)-3′-hydroxy-1,4-dihydro-2H-spiro[isoquinoline-3,4′-piperidine]-1′-carbonyl)-6-(trifluoromethyl)-5,6,7,8-tetrahydroimidazo[1,2-a]pyridin-8-yl)propanenitrile] | 205 nM | 4.83 nM | 4620 nM | –
N#CCCC1CC(C(F)(F)F)Cn2cc(C(=O)N3CC[C@]4(Cc5ccccc5CN4)[C@H](O)C3)nc21 (single isomer, unassigned) [Example 165, 3-((6R,8S or 6S,8R)-2-((3R,3′R)-3′-hydroxy-1,4-dihydro-2H-spiro[isoquinoline-3,4′-piperidine]-1′-carbonyl)-6-(trifluoromethyl)-5,6,7,8-tetrahydroimidazo[1,2-a]pyridin-8-yl)propanenitrile] | 841 nM | 82.2 nM | 26600 nM | –
CC1CC(C(F)(F)F)Cn2cc(C(=O)N3CC[C@]4(Cc5ccccc5CN4)[C@H](O)C3)nc21 (single isomer, unassigned) [Example 166, ((3R,3′R)-3′-hydroxy-1,4-dihydro-2H-spiro[isoquinoline-3,4′-piperidin]-1′-yl)((6R,8R or 6S,8S)-8-methyl-6-(trifluoromethyl)-5,6,7,8-tetrahydroimidazo[1,2-a]pyridin-2-yl)methanone] | 33.7 nM | 3.64 nM | 1640 nM | –
CC1CC(C(F)(F)F)Cn2cc(C(=O)N3CC[C@]4(Cc5ccccc5CN4)[C@H](O)C3)nc21 (single isomer, unassigned) [Example 167, ((3R,3′R)-3′-hydroxy-1,4-dihydro-2H-spiro[isoquinoline-3,4′-piperidin]-1′-yl)((6R,8R or 6S,8S)-8-methyl-6-(trifluoromethyl)-5,6,7,8-tetrahydroimidazo[1,2-a]pyridin-2-yl)methanone] | 194 nM | 9.55 nM | 3630 nM | –

Second part, the compound after the results:

EC50 [1] | EC50 [2, 3] | EC50 [2, 4] | EC50 ([1]; Homo sapiens, MCF7, 72 h) | Compound
2.28 nM | 0.409 nM | – | – | CC1(C)CC1(C#N)c1cnc2nc(C(=O)N3CC[C@]4(Cc5ccccc5CN4)[C@H](O)C3)cn2c1 (single isomer, unassigned) [Example 147]
121 nM | 1.11 nM | 1910 nM | – | CC1(C)CC1(C#N)c1cnc2nc(C(=O)N3CC[C@]4(Cc5ccccc5CN4)[C@H](O)C3)cn2c1 (single isomer, unassigned) [Example 148]
– | 5.26 nM | 3980 nM | 122 nM | COC[C@H]1C[C@@H](C(F)(F)F)Cn2cc(C(=O)N3CC[C@]4(Cc5ccccc5CN4)[C@H](O)C3)nc21 (single isomer, unassigned) [Example 155]
– | 42.7 nM | 15800 nM | 642 nM | COC[C@@H]1C[C@H](C(F)(F)F)Cn2cc(C(=O)N3CC[C@]4(Cc5ccccc5CN4)[C@H](O)C3)nc21 (single isomer, unassigned) [Example 156]
275 nM | 8.94 nM | 6460 nM | – | COCC1CC(C)Cn2cc(C(=O)N3CC[C@]4(Cc5ccccc5CN4)[C@H](O)C3)nc21 (single isomer, unassigned) [Example 157]
1700 nM | 71.6 nM | 29800 nM | – | COCC1CC(C)Cn2cc(C(=O)N3CC[C@]4(Cc5ccccc5CN4)[C@H](O)C3)nc21 (single isomer, unassigned) [Example 158]
527 nM | 61.7 nM | 22400 nM | – | COCC1CC(C)Cn2cc(C(=O)N3CC[C@]4(Cc5ccccc5CN4)[C@H](O)C3)nc21 (single isomer, unassigned) [Example 159]
– | 2.1 nM | 398 nM | 22.6 nM | COC(C)c1cc(Br)cn2cc(C(=O)N3CC[C@]4(Cc5cc(Cl)ccc5CN4)[C@H](O)C3)nc12 (single isomer, unassigned) [Example 225]
– | 1.4 nM | – | 5.04 nM | COC(C)c1cc(Br)cn2cc(C(=O)N3CC[C@]4(Cc5ccc(Cl)cc5CN4)[C@H](O)C3)nc12 (single isomer, unassigned) [Example 226]
